Assay results taken from US20080274192A1, “Pharmaceutical Compositions Comprising an Amorphous Form of a Vegf-R-Inhibitor” (PFIZER INC., priority 2005, published 2008).
Converted amounts (≈) assume the structure as drawn.

Columns and labels:
Assay type in all cases: physicochemical
[1] = in vitro dissolution test in MFD solution, dosed as oral powder for constitution; conditions: for AUC90 (area under the concentration-versus-time curve during the initial ninety minutes) / MDC90 (maximum dissolved concentration during the initial ninety minutes): MFD solution pH 6.5, 37° C., 200 μgA/mL dosed; for MDC90 (maximum dissolved concentration during the initial ninety minutes): pre-wetted with PBS/Methocel A/HPMCAS-H (OPC model)
Protocol: An in vitro dissolution test was performed to determine the dissolution performance of amorphous Compound A relative to crystalline Compound A. For this test, a sufficient amount of material was added to a microcentrifuge test tube so that the concentration of Compound A would have been 200 μgA/mL, if all of the compound had dissolved. The test was run in duplicate. First, 50 μL PBS containing 0.5 wt % Methocel A and 5 mg/mL HPMCAS-H was added to the sample in the tube and mixed using a vortex mixer, to model an oral powder for constitution dosage form. The tubes were placed in a 37° C. temperature-controlled chamber, and 1.8 mL PBS at pH 6.5 and 290 mOsm/kg, containing 7.3 mM sodium taurocholic acid and 1.4 mM of 1-palmitoyl-2-oleyl-sn-glycero-3-phosphocholine, was added to each respective tube. The samples were quickly mixed using a vortex mixer for about 60 seconds. The samples were centrifuged at 13,000 G at 37° C. for 1 minute. The resulting supernatant solution was then sampled and diluted 1:6 (by volume) with methanol and then analyzed by HPLC as described above. The contents of each tube were mixed on the vortex mixer and allowed to stand undisturbed at 37° C. until the next sample was taken. Samples were collected at 4, 10, 20, 40, 90, and 1200 minutes.
A similar test was performed with crystalline Compound A alone (Example 1), and a sufficient amount of material was added so that the concentration of compound would have been 200 μgA/mL, if all of the compound had dissolved.
The concentrations of Compound A obtained in these samples were used to determine the maximum dissolved concentration of Compound A (“MDC90”) and the area under the concentration-versus-time curve (“AUC90”) during the initial ninety minutes.
For these tests, a sufficient amount of material was added so that the concentration of Compound A would have been 200 μgA/mL, if all of the compound had dissolved. The results for the solid amorphous dispersion of Example 2 are included in Table 6, as are the results for tests with pure amorphous Compound A (Example 1) and crystalline Compound A (Example 1).

[2] = in vitro dissolution test in MFD solution, material added directly; conditions: MFD solution pH 6.5, 37° C., 200 μgA/mL dosed, no OPC pre-wetting
Protocol: An in vitro dissolution test was performed to determine the dissolution performance of the solid amorphous dispersion of Compound A relative to crystalline Compound A. For this test, a sufficient amount of material was added to a microcentrifuge test tube so that the concentration of Compound A would have been 200 μgA/mL, if all of the compound had dissolved. The test was run in duplicate. The tubes were placed in a 37° C. temperature-controlled chamber, and 1.8 mL PBS at pH 6.5 and 290 mOsm/kg, containing 7.3 mM sodium taurocholic acid and 1.4 mM of 1-palmitoyl-2-oleyl-sn-glycero-3-phosphocholine, was added to each respective tube. The samples were quickly mixed using a vortex mixer for about 60 seconds. The samples were centrifuged at 13,000 G at 37° C. for 1 minute. The resulting supernatant solution was then sampled and diluted 1:6 (by volume) with methanol and analyzed by high-performance liquid chromatography (HPLC). HPLC analysis was performed using a Waters C18 column. The mobile phase consisted of 65% 20 mM ammonium phosphate, adjusted to pH 3 with H3PO4, and 35% acetonitrile. UV absorbance was measured at 350 nm. The contents of each tube were mixed on the vortex mixer and allowed to stand undisturbed at 37° C. until the next sample was taken. Samples were collected at 4, 10, 20, 40, 90, and 1200 minutes. […]

[3] = solubility in model fasted duodenal solution; conditions: fassif, pH 6.5, 37° C.
Text: Compound A can exist in several different crystalline forms, as described in U.S. Provisional Application 60/624,665, filed on Nov. 2, 2004, which is incorporated herein by reference. Compound A in the crystalline form referred to as polymorphic Form IV has a pKa of about 4.2, and a solubility that is dependent on the pH of the solution, with the solubility being higher at low pH than at high pH. […] This pH-dependent solubility combined with a low in vivo rate of absorption results in low oral bioavailability, as well as significant subject-to-subject pharmacokinetic variability, for crystalline Compound A. Accordingly, there is a need to improve the bioavailability and reduce pharmacokinetic variability of Compound A relative to its crystalline form.

[4] = pKa of Compound A; conditions: crystalline polymorphic Form IV

AUC90 (area under the concentration-versus-time curve during the initial ninety minutes) ([1]; OPC model) [min * μgA/mL]	MDC90 (maximum dissolved concentration during the initial ninety minutes) [1] [μgA/mL]	AUC90 relative to crystalline Compound A ([1]; OPC model, MFD solution) [fold]	MDC90 relative to crystalline Compound A ([1]; OPC model, MFD solution) [fold]	AUC90 (area under the concentration-versus-time curve during the initial ninety minutes) [2] [min * μgA/mL]	MDC90 (maximum dissolved concentration during the initial ninety minutes) [2] [μgA/mL]	solubility [3] [µg/mL]	pKa [4]	SMILES
1700	48	5.7	16	–	–	–	–	CNC(=O)c1ccccc1Sc1ccc2c(/C=C/c3ccccn3)n[nH]c2c1 [Example 1, 6-[2-(methylcarbamoyl)phenylsulfanyl]-3-E-[2-(pyridin-2-yl)ethenyl]indazole]
300	3	–	–	200	3	–	–	CNC(=O)c1ccccc1Sc1ccc2c(/C=C/c3ccccn3)n[nH]c2c1 [Crystalline Compound A, 6-[2-(methylcarbamoyl)phenylsulfanyl]-3-E-[2-(pyridin-2-yl)ethenyl]indazole]
–	–	–	–	–	–	~4 (≈ 10.3 µM)	~4.2	CNC(=O)c1ccccc1Sc1ccc2c(/C=C/c3ccccn3)n[nH]c2c1 [Compound A, 6-[2-(methylcarbamoyl)phenylsulfanyl]-3-E-[2-(pyridin-2-yl)ethenyl]indazole]
